Data taken from patent publication US5506115A, “Reagent and method for determining activity of herpes protease” (G. D. Searle & Co., priority 1994, dated 1996).
Where a SMILES comes first, the peptide text is derived from it. The star is where a group is joined. Dabcyl = CN(C)c1ccc(N=Nc2ccc(C(=O)*)cc2)cc1; EDANS = O=S(=O)(O)c1cccc2c(NCCN*)cccc12; GABA = NCCCC(=O)O

Biological target: T1, CMV assemblin (Human cytomegalovirus, UniProt P16753)
T1 construct: a DNA construction encoding the protease domain of the UL 80 open reading frame; His6 (N); made in house; host or cells: E. coli
T1 sequence (P16753 1-256): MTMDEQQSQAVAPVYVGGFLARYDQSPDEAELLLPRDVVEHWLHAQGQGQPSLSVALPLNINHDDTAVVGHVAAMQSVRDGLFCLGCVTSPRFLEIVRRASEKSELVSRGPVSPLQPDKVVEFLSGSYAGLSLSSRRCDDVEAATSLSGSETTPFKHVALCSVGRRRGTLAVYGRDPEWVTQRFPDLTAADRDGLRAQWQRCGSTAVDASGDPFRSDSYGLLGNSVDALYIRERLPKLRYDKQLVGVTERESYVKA
Experiment: Hydrolysis of fluorogenic substrate by CMV assemblin (fluorescence time course, FIG. 2)
Type: biochemical
Conditions: 10 μM DE1, protease added; 340 nm excitation, 480 nm emission; within 30 minutes
Procedure: The fluorometric assay developed to incorporate the substrate compounds of the invention is a method for the determination of a herpesvirus protease and inhibitors of a herpesvirus protease, e.g. a CMV protease (also known as assemblin) encoded by UL 80, which comprises placing a known amount of the herpesvirus protease in the wells of a "Microlite 1"96 well plate (Dynatek Laboratories, Inc.), adding a known amount of the substrate at 22° C., measuring the change in fluorescence with time and determining the molar velocity of the herpesvirus protease by comparing against a standard curve which relates changes in fluorescent intensity to changes in concentration of product. Potential inhibitors of the protease action can be added to the well to observe their effect on the protease cleavage activity.
The arrow indicates the addition of protease to 10 μM DE1 [SEQ ID NO:34]. […] Fluorescence magnitude is plotted versus time.
An assay was developed for screening potential herpesvirus protease inhibitors utilizing the substrates of the invention. Recombinant HCMV protease was purified from E. coli expressing a DNA construction encoding the protease domain of the UL 80 open reading frame of human cytomegalovirus strain AD169. The construction also encoded six additional histidine residues at the amino terminus of the protease. […]

## CC(C)C[C@H](NC(=O)[C@H](CCCNC(=N)N)NC(=O)[C@H](C)NC(=O)[C@H](CO)NC(=O)[C@H](C)NC(=O)[C@H](CC(N)=O)NC(=O)[C@@H](NC(=O)[C@@H](NC(=O)CCCNC(=O)c1ccc(N=Nc2ccc(N(C)C)cc2)cc1)C(C)C)C(C)C)C(=O)NCCNc1cccc2c(S(=O)(=O)O)cccc12 [DE1, DABCYL-γ-Abu-Val-Val-Asn-Ala-Ser-Ala-Arg-Leu-EDANS] ({Dabcyl-GABA}-VVNASARL-{EDANS})
  increase in fluorescence emission on cleavage of the substrate: 10 fold
